The values below come from patent publication US20080300243A1, “Amide Derivatives as Ion-Channel Ligands and Pharmaceutical Compositions and Methods of Using the Same” (priority 2005, published 2008).

The target of series [1] is T1, VR1 (Homo sapiens, UniProt Q8NER1). Nature of the series: Calcium uptake assay, low pH (proton) stimulus. The class given is cell-based. More on the design: expressed in transfected cells; host or cells: T-REx HEK 293 (Invitrogen), pcDNA5/TO vector. Particulars: HEK293; 0.3 μM compound; low pH agonist; HEK 293 cells expressing hVR1; read-out: Low pH % Inhib. @ 0.3 μM.
Target sequence in this assay (Q8NER1 whole entry): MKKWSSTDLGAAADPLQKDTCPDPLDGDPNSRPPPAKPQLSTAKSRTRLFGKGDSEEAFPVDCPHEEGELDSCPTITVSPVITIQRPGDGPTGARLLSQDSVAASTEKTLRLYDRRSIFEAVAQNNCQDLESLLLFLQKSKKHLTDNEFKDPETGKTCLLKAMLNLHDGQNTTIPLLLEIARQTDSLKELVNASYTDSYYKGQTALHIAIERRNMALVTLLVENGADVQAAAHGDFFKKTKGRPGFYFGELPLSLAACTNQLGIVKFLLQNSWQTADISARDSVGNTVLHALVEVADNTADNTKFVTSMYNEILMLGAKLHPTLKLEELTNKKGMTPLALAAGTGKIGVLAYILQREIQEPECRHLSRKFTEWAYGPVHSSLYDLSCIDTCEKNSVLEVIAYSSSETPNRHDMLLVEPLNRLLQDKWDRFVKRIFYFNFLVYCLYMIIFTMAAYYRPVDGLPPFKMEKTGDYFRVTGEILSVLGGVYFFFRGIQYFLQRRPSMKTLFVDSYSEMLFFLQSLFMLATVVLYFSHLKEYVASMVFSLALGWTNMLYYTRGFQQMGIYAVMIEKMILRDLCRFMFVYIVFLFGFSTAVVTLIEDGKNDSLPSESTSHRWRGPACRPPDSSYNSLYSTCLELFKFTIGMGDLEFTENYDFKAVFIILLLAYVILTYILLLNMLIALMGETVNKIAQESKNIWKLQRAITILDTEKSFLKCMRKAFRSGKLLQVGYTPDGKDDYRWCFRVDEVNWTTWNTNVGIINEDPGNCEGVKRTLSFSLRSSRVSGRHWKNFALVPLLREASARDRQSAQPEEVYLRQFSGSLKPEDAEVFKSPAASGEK

The target of series [2] is T1, VR1. Nature of the series: Acid stimulation assay (FDSS 6000). The class given is cell-based. More on the design: host or cells: unspecified cell suspension. The conditions noted are these: final assay buffer pH5.8, 15 min pre-incubation. As for the experimental part:
The Acid-induced changes in the intracellular calcium concentration were monitored using FDSS 6000 (Hamamatsu Photonics, Japan), a fluorometric imaging system. The cell suspension in resting buffer (HBSS supplemented with […], pH 7.4) was pre-incubated with varying concentrations of the test compounds or resting buffer (buffer control) for 15 minutes at room temperature under dark conditions. The cells were automatically added the stimulating solution (HBSS supplemented with MES, final assay buffer pH5.8) by the FDSS 6000.
Target sequence in this assay (Q8NER1 whole entry, species assumed): as the sequence (Q8NER1 whole entry) above

Series [3] can be described thus: Half-life in human liver microsomes (HLM). In kind it is in vitro ADME. The conditions noted are these: human, human liver microsomes (HLM, HL101), pH 7.4; 1 μM compound, 0.78 mg/mL HLM, 37° C., NADPH. As for the experimental part: Test compounds (1 μM) were incubated with 3.3 mM MgCl2 and 0.78 mg/mL HLM (HL101) in 100 mM potassium phosphate buffer (pH 7.4) at 37° C. on the 96-deep well plate. The reaction mixture was split into two groups, a non-P450 and a P450 group. NADPH was only added to the reaction mixture of the P450 group. An aliquot of samples of P450 group was collected at 0, 10, 30, and 60 min time point, where 0 min time point indicated the time when NADPH was added into the reaction mixture of P450 group. An aliquot of samples of non-P450 group was collected at −10 and 65 min time point. Collected aliquots were extracted with acetonitrile solution containing an internal standard. The precipitated protein was spun down in centrifuge (2000 rpm, 15 min). The compound concentration in supernatant was measured by LC/MS/MS system.
The half-life value was obtained by plotting the natural logarithm of the peak area ratio of compounds/internal standard versus time. The slope of the line of best fit through the points yields the rate of metabolism (k). This was converted to a half-life value using following equations:
Exemplary compounds of the invention were tested (1 μM), and were incubated with 3.3 mM MgCl2 and 0.78 mg/mL HLM (HL101) in 100 mM potassium phosphate buffer (pH 7.4) at 37° C. on the 96-deep well plate. The reaction mixture was split into two groups, a non-P450 and a P450 group. NADPH was only added to the reaction mixture of the P450 group. An aliquot of samples of the P450 group was collected at 0, 10, 30, and 60 minute time points, where the 0 minute time point indicated the time when NADPH was added into the reaction mixture of the P450 group. An aliquot of samples of the non-P450 group was collected at −10 and 65 minute time points. Collected aliquots were extracted with an acetonitrile solution containing an internal standard. The precipitated protein was spun down in a centrifuge (2000 rpm, 15 rain). The compound concentration in supernatant was measured by LC/MS/MS system. The half-life value (T1/2) was obtained by plotting the natural logarithm of the peak area ratio of compounds/internal standard versus time. The slope of the line of best fit through the points yields the rate of metabolism (k). This was converted to a half-life value using following equations: Half-life=ln 2/k.

Series [4] addresses T1, VR1. Nature of the series: Calcium uptake assay, capsaicin stimulus. Further details: expressed in transfected cells; host or cells: T-REx HEK 293 (Invitrogen), pcDNA5/TO vector. The conditions noted are these: 3 nM compound. In kind it is cell-based.
Target sequence in this assay (Q8NER1 whole entry): as above
The target in another series is T2, VR1 receptor (Rattus norvegicus, UniProt O35433).
T2 construct: endogenous in cells; host or cells: dorsal root ganglion (DRG) neurons
The series can be described thus: Calcium imaging assay in DRG neurons, capsaicin stimulus. The class given is cell-based. The conditions noted are these: for inhibition of the Capsaicin induced intracellular calcium response (FIG. 1): 3 nM compound, DRG neurons. The procedure:
Therefore the functional activity of compounds at the VR1 receptor may be determined by measuring changes in intracellular calcium levels in neurons such as the dorsal root ganglion. […] Prior to assay, cells were loaded with 5 μg/ml Fura2 in normal saline solution at 37° C. for 40 minutes. Cells were then washed with normal saline to remove dye before commencement of the experiment. The plated neurons were transferred into a chamber on the stage of a Nikon eclipse TE300 microscope after which neurons were allowed to attain a stable fluorescence for about 10 minutes before beginning the experiment. The assay consists of two stages, a pretreatment phase followed by a treatment phase. First, a solution of the test compound was added from a multivalve perfusion system to the cells for 1 minute (pretreatment). […] Fura2 was excited at 340 and 380 nm to indicate relative calcium ion concentration. Changes in wavelength measurements were made throughout the course of the experiment. The fluorescence ratio was calculated by dividing fluorescence measured at 340 nm by that at 380 nm. Data were collected using Intelligent Imaging's Slidebook software.

T2 sequence (O35433 whole entry): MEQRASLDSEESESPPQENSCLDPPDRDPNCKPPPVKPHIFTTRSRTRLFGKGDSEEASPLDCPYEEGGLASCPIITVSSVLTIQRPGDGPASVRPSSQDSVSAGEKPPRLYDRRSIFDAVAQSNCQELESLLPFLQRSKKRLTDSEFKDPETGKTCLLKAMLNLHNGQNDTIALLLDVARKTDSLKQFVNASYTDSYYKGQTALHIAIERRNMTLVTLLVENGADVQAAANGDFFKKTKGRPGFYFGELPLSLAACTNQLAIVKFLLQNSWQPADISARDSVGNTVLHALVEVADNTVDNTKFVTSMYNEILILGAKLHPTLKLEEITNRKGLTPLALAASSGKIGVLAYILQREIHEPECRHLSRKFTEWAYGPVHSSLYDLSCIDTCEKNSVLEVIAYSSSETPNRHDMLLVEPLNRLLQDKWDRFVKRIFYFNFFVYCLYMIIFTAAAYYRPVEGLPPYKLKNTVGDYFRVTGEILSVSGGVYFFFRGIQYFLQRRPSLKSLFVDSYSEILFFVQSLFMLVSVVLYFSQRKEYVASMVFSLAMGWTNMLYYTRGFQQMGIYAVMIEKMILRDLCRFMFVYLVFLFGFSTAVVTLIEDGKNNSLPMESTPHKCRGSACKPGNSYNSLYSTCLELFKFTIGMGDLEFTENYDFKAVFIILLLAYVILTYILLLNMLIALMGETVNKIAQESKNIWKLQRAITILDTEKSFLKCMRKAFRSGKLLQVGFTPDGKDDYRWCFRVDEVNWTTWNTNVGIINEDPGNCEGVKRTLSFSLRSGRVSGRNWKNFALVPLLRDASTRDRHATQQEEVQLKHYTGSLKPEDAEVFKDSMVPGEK

The term IC50 denotes the point on the concentration scale where inhibition reaches its midpoint. For the compound `O=C(Nc1ccc2c(c1)OC[C@H](CO)N2)c1ccc(/C=C/C(F)(F)F)cc1F` [Compound 193], the inhibition at 0.3 µM on VR1 [1] was found to be 103%. For the same compound, the IC50 against VR1 [2] turned out to be 3 nM.
What is called half-life is how long it takes for the measured level to halve. Read a high half-life as slow loss. Compound `O=C(Nc1cccc2cnccc12)c1ccc(C#CC(F)(F)F)cc1` [Compound 45] gave a half-life at 1 μM in series [3] of 0.02 h. Moreover, the inhibition at 0.3 µM on VR1 [1] worked out at 99%. Also, the “inhibition of the Capsaicin induced intracellular calcium response (FIGS. 2-6)” value at VR1 [4] is given as “significant inhibition”. For the same compound, at VR1 [2], the IC50 turned out to be 1 nM.
Take `CC(C)(C)C#Cc1ccc(C(=O)Nc2ccc3c(c2)OC[C@@H](CO)N3)c(F)c1` [Compound 170]: the inhibition at 0.3 µM at VR1 [1] is 108%. Moreover, the 50% inhibitory concentration (IC50) at VR1 [2] turned out to be 3 nM.
Turning to `CC(C)(C)C#Cc1ccc(C(=O)Nc2ccc3c(c2)OC[C@H](CO)N3)c(F)c1` [Compound 172], the half-life at 1 μM in series [3] is 1.24 h. Besides, the inhibition at 0.3 µM at VR1 [1] is 109%. For the same compound, the IC50 against VR1 [2] worked out at 3 nM.
Take `Cc1cc(C#CC(C)(C)C)ccc1C(=O)Nc1ccc2scnc2c1` [Compound 198, N-(benzo[d]thiazol-5-yl)-2-methyl-4-(3,3-dimethylbut-1-ynyl)benzamide]: on VR1 [1], the inhibition at 0.3 µM was determined as 101%. The IC50 on VR1 [2] worked out at 3 nM.
`COc1c(C#CC(C)(C)C)ccc(C(=O)Nc2cccc3cnccc23)c1F` [Compound 176]: the inhibition at 0.3 µM at VR1 [1] came to 89%. Moreover, it took 4 nM to reach half-maximal inhibition on VR1 [2] (IC50).
As to `Cc1cc(C#CC(C)(C)C)ccc1C(=O)Nc1ccc2c(c1)OC[C@H](CO)N2` [Compound 194], the inhibition at 0.3 µM at VR1 [1] was determined as 102%. The compound also displayed an IC50 on VR1 [2] of 3 nM.
The compound `C/C(=C\C(F)(F)F)c1ccc(C(=O)Nc2ccc3c(c2)OCCN3)cc1` [Compound 96] had a half-life at 1 μM in series [3] of 0.34 h. For the same compound, the inhibition at 0.3 µM on VR1 [1] was determined as 99%. In addition, the “inhibition of the Capsaicin induced intracellular calcium response (FIGS. 2-6)” value on VR1 [4] is given as “significant inhibition”. Besides, the half-inhibitory concentration (IC50) at VR1 [2] worked out at 3 nM.
As to `CC(C)(C)C#Cc1cc(F)c(C(=O)Nc2cccc3cnccc23)c(F)c1` [Compound 166], the inhibition at 0.3 µM at VR1 [1] amounted to 99%. The half-inhibitory concentration (IC50) against VR1 [2] amounted to 8 nM.
Taken in the same sequence, the figures for `Cc1cc(C#CC(C)(C)C)ccc1C(=O)Nc1ccc2sc(CO)nc2c1` [Compound 197, N-(2-(hydroxymethyl)benzo[d]thiazol-5-yl)-2-methyl-4-(3,3-dimethylbut-1-ynyl)benzamide] were 107% and 3 nM.
As to `Cc1cc(/C=C/C(F)(F)F)ccc1C(=O)Nc1cnc2ccccc2c1` [Compound 187], in series [3], the half-life at 1 μM was 9.47 h. The inhibition at 0.3 µM on VR1 [1] was 98%. Further, on VR1 [4], the “inhibition of the Capsaicin induced intracellular calcium response (FIGS. 2-6)” value is on record as “significant inhibition”. This compound also returned an IC50 against VR1 [2] of 3 nM.
On to `Cc1cc(C#CC(C)(C)C)ccc1C(=O)Nc1ccc2c(c1)OCC(CO)N2` (stereo not drawn) [Compound 167], for which the inhibition at 0.3 µM on VR1 [1] came out at 107%. Moreover, the “inhibition of the Capsaicin induced intracellular calcium response (FIGS. 2-6)” value at VR1 [4] is “significant inhibition”. On VR1 [2], this compound registered a 50% inhibitory concentration (IC50) of 7 nM.
On to `Cc1cc(/C=C/C(F)(F)F)ccc1C(=O)Nc1ccc2c(c1)OC[C@H](CO)N2` [Compound 195], for which the inhibition at 0.3 µM on VR1 [1] turned out to be 60%. The IC50 against VR1 [2] worked out at 3 nM.
For `O=C(Nc1ccc2c(c1)OC[C@@H](CO)O2)c1ccc(/C=C/C(F)(F)F)cc1` [Compound 107], the inhibition at 0.3 µM on VR1 [1] was 116%. Further, the midpoint of inhibition against VR1 [2], the IC50, lay at 5 nM.
Consider `O=C(Nc1ccc2c(c1)OCC(CO)N2)c1ccc(C#CC2CC2)cc1F` (stereo not drawn) [Compound 127], for which, in series [3], the half-life at 1 μM is 1.37 h. Also, the inhibition at 0.3 µM on VR1 [1] was 100%. Further, the concentration for half-maximal inhibition (IC50) against VR1 [2] turned out to be 5 nM.
As to `Cc1cc(/C=C/C(C)(C)C)ccc1C(=O)Nc1cnc2ccccc2c1` [Compound 210], on VR1 [1], the inhibition at 0.3 µM was 106%. Moreover, half-maximal inhibition against VR1 [2] (IC50) was put at 3 nM.
Take `Cc1cc(/C=C/C(F)(F)F)ccc1C(=O)Nc1cnc2c(c1)OCC(CO)N2` (stereo not drawn) [Compound 233]: the inhibition at 0.3 µM on VR1 [1] was determined as 100%. Also, the “inhibition of the Capsaicin induced intracellular calcium response (FIGS. 2-6)” value on VR1 [4] is listed as “significant inhibition”. The compound further displayed an IC50 against VR1 [2] of 3 nM.
In series [3], `Cc1cc(/C=C/C(F)(F)F)ccc1C(=O)Nc1ccc2c(c1)OCCN2` [Compound 118] gave a half-life at 1 μM of 1.03 h. Further, at VR1 [1], the inhibition at 0.3 µM stood at 103%. For the same compound, half-maximal inhibition against VR1 [2] (IC50) was put at 5 nM.
Taken in the same sequence, the figures for `O=C(Nc1cccc2cnccc12)c1ccc(/C=C/C(F)(F)F)cc1` [Compound 35] were 0.49 h, 106% and 2.5 nM.
Regarding `CC(C)(C)C#Cc1ccc(C(=O)Nc2ccc3c(c2)OCC(CO)N3)c(F)c1` (stereo not drawn) [Compound 138], at VR1 [1], the inhibition at 0.3 µM came to 107%. The compound also returned a half-maximal inhibitory concentration (IC50) against VR1 [2] of 3 nM.
Compound `O=C(Nc1ccc2c(c1)OCC(CO)N2)c1ccc(/C=C/C(F)(F)F)cc1` (stereo not drawn) [Compound 111] had a half-life at 1 μM in series [3] of 0.75 h. Besides, on VR1 [1], the inhibition at 0.3 µM came out at 116%. For the same compound, on VR1 [2], the IC50 was determined as 5 nM.
In the case of `Cc1cc(/C=C/C(F)(F)F)ccc1C(=O)Nc1ccc2sc(CO)nc2c1` [Compound 225], the “inhibition of the Capsaicin induced intracellular calcium response (FIG. 1)” value is reported as “significant inhibition” on VR1 receptor and “reduced” at VR1 receptor (listed as compound 225). In addition, the inhibition at 0.003 µM at VR1 receptor (DRG neuron, read-out: % inhibition of capsaicin induced calcium influx) is > 75%. Moreover, the half-life at 1 μM in series [3] was 3.26 h. Also, the inhibition at 0.3 µM on VR1 [1] stood at 110%. Besides, the IC50 against VR1 [2] came to 0.9 nM.
`Cc1cc(C#CC(C)(C)C)ccc1C(=O)Nc1ccc2[nH]cnc2c1` [Compound 214]: the inhibition at 0.3 µM at VR1 [1] amounted to 74%. The compound further yielded an IC50 at VR1 [2] of 3 nM.
